Laboratory results taken from patent US12427179B2, “Compositions and methods for diagnosis and treatment of neurodegenerative diseases” (EPITRACKER, INC., priority 2019, dated 2025).

Legend:
Format in all cases: cell-based, human
[1] = tested on: 4H: Venular endothelial cells (IL-4, histamine); test: BioMAP 4H system; details: at the compound's active concentration
Description: (§1) The Diversity PLUS panel allows test agent characterization in an unbiased way across a broad set of systems modeling various human disease states. These systems are designed to model complex human tissue and disease biology of the vasculature, skin, lung, and inflammatory tissues. Quantitative measurements of 148 biomarker activities across this broad panel, along with comparative analysis of biological activities from known bioactive agents, were used to predict and compare the efficacy and function of each selected compound at selected concentrations (6.7 and/or 20 μM).
BioMAP systems are constructed with one or more primary cell types from healthy human donors, with stimuli (such as cytokines or growth factors) added to capture relevant signaling networks that naturally occur in human tissue or pathological conditions. Vascular biology is modeled in both a Th1 (3C system) and a Th2 (4H system) inflammatory environment, as well as in a Th1 inflammatory state specific to arterial smooth muscle cells (CASM3C system). […]
(§2) Each test agent generates a signature BioMAP profile that is created from the changes in protein biomarker readouts within individual system environments. Biomarker readouts (7-17 per system) are selected for therapeutic and biological relevance, are predictive for disease outcomes or specific drug effects and are validated using agents with known mechanism of action (MoA). Each readout is measured quantitatively by immune-based methods that detect protein (e.g., ELISA) or functional assays that measure proliferation and viability. BioMAP readouts are diverse and include cell surface receptors, cytokines, chemokines, matrix molecules and enzymes. In total, the Diversity PLUS panel contains 148 biomarker readouts that capture biological changes that occur within the physiological context of the particular BioMAP system. […]
(§3) Activated BioMAP systems were incubated with each compound for 24 to 72 hours. Protein-based biomarkers from activated cell systems were measured and compared with non-treated control systems.

[2] = tested on: BE3C: Bronchial epithelial cells (IL-1β, IFNγ, TNFα); test: BioMAP BE3C system; details: at the compound's active concentration
Description: (§4) The Diversity PLUS panel allows test agent characterization in an unbiased way across a broad set of systems modeling various human disease states. These systems are designed to model complex human tissue and disease biology of the vasculature, skin, lung, and inflammatory tissues.
(§5) BioMAP systems are constructed with one or more primary cell types from healthy human donors, with stimuli (such as cytokines or growth factors) added to capture relevant signaling networks that naturally occur in human tissue or pathological conditions. Vascular biology is modeled in both a Th1 (3C system) and a Th2 (4H system) inflammatory environment, as well as in a Th1 inflammatory state specific to arterial smooth muscle cells (CASM3C system). Additional systems recapitulate aspects of the systemic immune response including monocyte-driven Th1 inflammation (LPS system) or T cell stimulation (SAg system), chronic Th1 inflammation driven by macrophage activation (lMphg system) and the T cell-dependent activation of B cells that occurs in germinal centers (BT system). The BE3C system (Th1) and the BF4T system (Th2) represent airway inflammation of the lung, while the MyoF system models myofibroblast-lung tissue remodeling. Lastly, skin biology is addressed in the KF3CT system modeling Th1 cutaneous inflammation and the HDF3CGF system modeling wound healing.
(§6) Each test agent generates a signature BioMAP profile that is created from the changes in protein biomarker readouts within individual system environments. Biomarker readouts (7-17 per system) are selected for therapeutic and biological relevance, are predictive for disease outcomes or specific drug effects and are validated using agents with known mechanism of action (MoA). Each readout is measured quantitatively by immune-based methods that detect protein (e.g., ELISA) or functional assays that measure proliferation and viability. BioMAP readouts are diverse and include cell surface receptors, cytokines, chemokines, matrix molecules and enzymes.
as §3

[3] = tested on: CASM3C: Coronary artery smooth muscle cells (IL-1β, TNFα, IFNγ); test: BioMAP CASM3C system; details: CASM3C system; at the compound's active concentration
Description: as §4, §5, §6, §3

[4] = tested on: /Mphg: Macrophages, venular endothelial cells (TLR2 ligand); test: BioMAP /Mphg system; details: at the compound's active concentration
Description: as §1, §5, §2, §3

`O=C(O)CNC(=O)c1ccccc1` [hippurate] was tested, and the “P-selectin, log10 reduction vs nontreated controls” value [1] was −0.10 log10, the “MMP-1, log10 reduction vs nontreated controls” value [2] was −0.14 log10 and the “Thrombomodulin, log10 reduction vs nontreated controls” value [3] was −0.16 log10. For the same compound, the “IL-8, log10 reduction vs nontreated controls” value [4] was −0.12 log10.
